Experiment: xn = mol fraction of the nth substance listed
Conditions: Liquid, Vibrating tube method

COc1cc2c(cc1O)CC1c3c(cc(O)c(OC)c3-2)CCN1C (stereo not given) [boldine] + CCO
Conditions	mass density [kg/m3]
323.04 K, 16000 kPa, x1 = 0.0074	793.69
323.04 K, 16000 kPa, x1 = 0.0196	821.98
323.04 K, 17000 kPa, x1 = 0.0074	794.55
323.04 K, 17000 kPa, x1 = 0.0196	822.81
323.04 K, 18000 kPa, x1 = 0.0074	795.4
323.04 K, 18000 kPa, x1 = 0.0196	823.62
323.04 K, 19000 kPa, x1 = 0.0074	796.23
323.04 K, 19000 kPa, x1 = 0.0196	824.42
323.04 K, 20000 kPa, x1 = 0.0074	797.04
323.04 K, 20000 kPa, x1 = 0.0196	825.2
323.05 K, 1000 kPa, x1 = 0.0267	820.88
323.05 K, 2000 kPa, x1 = 0.0267	821.74
323.05 K, 3000 kPa, x1 = 0.0267	822.62
323.05 K, 4000 kPa, x1 = 0.0267	823.5
323.05 K, 5000 kPa, x1 = 0.0267	824.37
323.05 K, 6000 kPa, x1 = 0.0267	825.26
323.05 K, 7000 kPa, x1 = 0.0267	826.15
323.05 K, 8000 kPa, x1 = 0.0267	827.02
323.05 K, 9000 kPa, x1 = 0.0267	827.89
323.05 K, 10000 kPa, x1 = 0.0267	828.78
323.05 K, 11000 kPa, x1 = 0.0267	829.64
323.05 K, 12000 kPa, x1 = 0.0267	830.5
323.05 K, 13000 kPa, x1 = 0.0267	831.36
323.05 K, 14000 kPa, x1 = 0.0267	832.21
323.05 K, 15000 kPa, x1 = 0.0267	833.04
323.05 K, 16000 kPa, x1 = 0.0267	833.87
323.05 K, 17000 kPa, x1 = 0.0267	834.68
323.05 K, 18000 kPa, x1 = 0.0267	835.48
323.05 K, 19000 kPa, x1 = 0.0267	836.27
323.05 K, 20000 kPa, x1 = 0.0267	837.04
323.11 K, 1000 kPa, x1 = 0.0136	793.39
323.11 K, 2000 kPa, x1 = 0.0136	794.29
323.11 K, 3000 kPa, x1 = 0.0136	795.2
323.11 K, 4000 kPa, x1 = 0.0136	796.12
323.11 K, 5000 kPa, x1 = 0.0136	797.04
323.11 K, 6000 kPa, x1 = 0.0136	797.96
323.11 K, 7000 kPa, x1 = 0.0136	798.88
323.11 K, 8000 kPa, x1 = 0.0136	799.8
323.11 K, 9000 kPa, x1 = 0.0136	800.72
323.11 K, 10000 kPa, x1 = 0.0136	801.63
323.11 K, 11000 kPa, x1 = 0.0136	802.53
323.11 K, 12000 kPa, x1 = 0.0136	803.44
323.11 K, 13000 kPa, x1 = 0.0136	804.33
323.11 K, 14000 kPa, x1 = 0.0136	805.21
323.11 K, 15000 kPa, x1 = 0.0136	806.08
323.11 K, 16000 kPa, x1 = 0.0136	806.95
323.11 K, 17000 kPa, x1 = 0.0136	807.79
323.11 K, 18000 kPa, x1 = 0.0136	808.63
323.11 K, 19000 kPa, x1 = 0.0136	809.44
323.11 K, 20000 kPa, x1 = 0.0136	810.25
332.92 K, 1000 kPa, x1 = 0.0012	757.69
332.92 K, 2000 kPa, x1 = 0.0012	758.72
332.92 K, 3000 kPa, x1 = 0.0012	759.75
332.92 K, 4000 kPa, x1 = 0.0012	760.77
332.92 K, 5000 kPa, x1 = 0.0012	761.81
332.92 K, 6000 kPa, x1 = 0.0012	762.85
332.92 K, 7000 kPa, x1 = 0.0012	763.86
332.92 K, 8000 kPa, x1 = 0.0012	764.88
332.92 K, 9000 kPa, x1 = 0.0012	765.9
332.92 K, 10000 kPa, x1 = 0.0012	766.9
332.92 K, 11000 kPa, x1 = 0.0012	767.9
332.92 K, 12000 kPa, x1 = 0.0012	768.88
332.92 K, 13000 kPa, x1 = 0.0012	769.87
332.92 K, 14000 kPa, x1 = 0.0012	770.83
332.92 K, 15000 kPa, x1 = 0.0012	771.78
332.92 K, 16000 kPa, x1 = 0.0012	772.72
332.92 K, 17000 kPa, x1 = 0.0012	773.63
332.92 K, 18000 kPa, x1 = 0.0012	774.53
332.92 K, 19000 kPa, x1 = 0.0012	775.42
332.92 K, 20000 kPa, x1 = 0.0012	776.29
332.93 K, 1000 kPa, x1 = 0.0074	770.77
332.93 K, 2000 kPa, x1 = 0.0074	771.77
332.93 K, 3000 kPa, x1 = 0.0074	772.79
332.93 K, 4000 kPa, x1 = 0.0074	773.79
332.93 K, 5000 kPa, x1 = 0.0074	774.8

Reference: the NIST ThermoML archive (doi:10.1016/j.jct.2012.03.003)
